Data from US6472392B1, “Triazole compounds and the use thereof as dopamine-D3 -ligands” (Abbott Laboratories, priority 1997, dated 2002).

melting point | Structure (SMILES)
144 to 145 °C | Cn1c(CCCCN2CCN(c3cc(C(C)(C)C)nc(C(C)(C)C)n3)CC2)nnc1-c1ccccc1 [Example 22, 3-{4-[4-(2,6-Di-t-butylpyrimidin-4-yl)piperazin-1-yl]butyl}-4-methyl-5-phenyl-1,2,4-(4H)-triazole]
156 to 161 °C | Cn1c(C=CCCN2CCN(c3cc(C(C)(C)C)nc(C(C)(C)C)n3)CC2)nnc1-c1ccccc1 [Example 21, 3-{4-[4-(2,6-Di-t-butylpyrimidin-4-yl)piperazin-1-yl]but-1-enyl}-4-methyl-5-phenyl-1,2,4-(4H)-triazole]
